These results are taken from patent US10166216B2 (Rigel Pharmaceuticals, Inc., priority 2006, dated 2019).

Where only a bound is given, the exact number is not on record here.

Chain of Axl (P30530 26-894): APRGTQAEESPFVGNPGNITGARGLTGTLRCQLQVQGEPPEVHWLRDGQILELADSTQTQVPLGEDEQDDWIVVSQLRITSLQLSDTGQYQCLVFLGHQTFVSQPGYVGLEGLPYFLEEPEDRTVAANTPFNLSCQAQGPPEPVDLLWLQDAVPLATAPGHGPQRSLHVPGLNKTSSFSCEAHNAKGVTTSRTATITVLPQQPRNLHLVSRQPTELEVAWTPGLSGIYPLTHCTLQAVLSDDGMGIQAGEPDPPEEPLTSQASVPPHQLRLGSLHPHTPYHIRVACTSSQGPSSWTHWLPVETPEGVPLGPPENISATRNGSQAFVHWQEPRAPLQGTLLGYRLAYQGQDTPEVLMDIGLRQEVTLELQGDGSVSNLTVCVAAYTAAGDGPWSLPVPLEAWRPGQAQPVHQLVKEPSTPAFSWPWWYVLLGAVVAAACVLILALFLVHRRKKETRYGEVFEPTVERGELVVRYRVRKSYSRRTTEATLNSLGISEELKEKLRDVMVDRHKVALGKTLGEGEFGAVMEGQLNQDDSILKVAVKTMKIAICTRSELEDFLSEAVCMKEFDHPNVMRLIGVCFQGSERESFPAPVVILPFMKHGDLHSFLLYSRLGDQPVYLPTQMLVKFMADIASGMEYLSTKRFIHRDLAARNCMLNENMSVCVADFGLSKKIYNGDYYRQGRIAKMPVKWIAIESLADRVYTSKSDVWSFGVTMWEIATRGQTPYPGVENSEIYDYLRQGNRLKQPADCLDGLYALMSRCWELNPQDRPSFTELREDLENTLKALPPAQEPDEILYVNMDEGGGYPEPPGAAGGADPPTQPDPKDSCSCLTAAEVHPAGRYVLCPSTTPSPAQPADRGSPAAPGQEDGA

In the first experiment the target is Axl (Homo sapiens (Human), UniProt P30530). Nature of the experiment: Phospho-Akt in-cell Western assay (Axl-antibody cross-linking stimulation). Format: cell-based. The settings on record: inhibition of Axl activity, Hela cells, phospho-Akt readout; Table 1, formula (Ia1). Put shortly:
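HeLa cells on poly-L-lysine, starved 24 hrs with Axl/Fc, pre-treated with compound 1 hr at 37° C., then stimulated 5 min with Axl primary/secondary antibody cluster. Fixed cells probed for phospho-Akt by chemiluminescent in-cell Western; signal normalized to crystal violet cell number.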
`COc1cc2c(-n3nc(Nc4ccc(OCCN5CCCC5)cc4)nc3N)ncnc2cc1OCc1ccccc1` [Compound 104, 1-(7-(benzyloxy)-6-methoxyquinazolin-4-yl)-N^3-(4-(2-(pyrrolidin-1-yl)ethoxy)phenyl)-1H-1,2,4-triazole-3,5-diamine] came in with a half-maximal inhibitory concentration (IC50) of over 20000 nM.

Still in this experiment, the particulars now being: inhibition of Axl activity, phospho-Akt in-cell Western assay.
`COc1cc2ncnc(-n3nc(Nc4ccc(N5CCN(C)CC5)c(F)c4)nc3N)c2cc1OC` [Compound 105, 1-(6,7-dimethoxyquinazolin-4-yl)-N^3-(3-fluoro-4-(4-methylpiperazin-1-yl)phenyl)-1H-1,2,4-triazole-3,5-diamine] returned an IC50 of under 1000 nM.

Compound `COc1cc2c(-n3nc(Nc4ccc(N5CCN(C6CC7CCC6C7)CC5)c(F)c4)nc3N)ncnc2cc1O` (stereo not drawn) [Compound 106, 4-(5-amino-3-(4-(4-(bicyclo[2.2.1]heptan-2-yl)piperazin-1-yl)-3-fluorophenylamino)-1H-1,2,4-triazol-1-yl)-6-methoxyquinazolin-7-ol] displayed an IC50 of under 1000 nM. Compound `COc1cc2ncnc(-n3nc(Nc4ccc(N5CCN(C(C)=O)CC5)cc4)nc3N)c2cc1OC` [Compound 107, 1-(4-(4-(5-amino-1-(6,7-dimethoxyquinazolin-4-yl)-1H-1,2,4-triazol-3-ylamino)phenyl)piperazin-1-yl)ethanone] came in with an IC50 of under 1000 nM. Same read-out and setting: the figure for `CN1CCN(c2ccc(Nc3nc(N)n(-c4cc5c(nn4)-c4ccccc4CC5)n3)cc2)CC1` [Compound 108, 1-(5,6-dihydrobenzo[h]cinnolin-3-yl)-N^3-(4-(4-methylpiperazin-1-yl)phenyl)-1H-1,2,4-triazole-3,5-diamine] is under 1000 nM. Still for that read-out and setting: under `COc1cc2c(-n3nc(Nc4ccc(N5CCN(C6CCCCCC6)CC5)cc4)nc3N)ncnc2cc1O` [Compound 109, 4-(5-amino-3-(4-(4-cycloheptylpiperazin-1-yl)phenylamino)-1H-1,2,4-triazol-1-yl)-6-methoxyquinazolin-7-ol] stands under 1000 nM; under `COc1cc2ncnc(-n3nc(Nc4ccc(N5CCN(C6CCCCCC6)CC5)cc4)nc3N)c2cc1OC` [Compound 110, N^3-(4-(4-cycloheptylpiperazin-1-yl)phenyl)-1-(6,7-dimethoxyquinazolin-4-yl)-1H-1,2,4-triazole-3,5-diamine], under 1000 nM. Still for that read-out and setting: the figure for `COc1cc2ncnc(-n3nc(Nc4ccc(N5CCN(C6C7CC8CC(C7)CC6C8)CC5)cc4)nc3N)c2cc1OC` (stereo not drawn) [Compound 111] is over 20000 nM; for `COc1cc2ncnc(-n3nc(Nc4ccc(N5CCN(C6CCCCCCC6)CC5)cc4)nc3N)c2cc1OC` [Compound 112, N^3-(4-(4-cyclooctylpiperazin-1-yl)phenyl)-1-(6,7-dimethoxyquinazolin-4-yl)-1H-1,2,4-triazole-3,5-diamine] it is over 20000 nM. For the compound `CN1CCN(c2ccc(Nc3nc(N)n(-c4nccc5[nH]c(=O)ccc45)n3)cc2F)CC1` [Compound 113, 5-(5-amino-3-(3-fluoro-4-(4-methylpiperazin-1-yl)phenylamino)-1H-1,2,4-triazol-1-yl)-1,6-naphthyridin-2(1H)-one], the 50% inhibitory concentration (IC50) was under 1000 nM. Still for that read-out and setting: under `COc1cc2ncnc(-n3nc(Nc4ccc(N5CCN(C6CCCCC6)CC5)c(Cl)c4)nc3N)c2cc1OC` [Compound 114, N^3-(3-chloro-4-(4-cyclohexylpiperazin-1-yl)phenyl)-1-(6,7-dimethoxyquinazolin-4-yl)-1H-1,2,4-triazole-3,5-diamine] stands under 1000 nM; under `Nc1nc(Nc2ccc(N3CCN(C4CCCCC4)CC3)cc2)nn1-c1cc2c(nn1)-c1ccccc1CC2` [Compound 115, N^3-(4-(4-cyclohexylpiperazin-1-yl)phenyl)-1-(5,6-dihydrobenzo[h]cinnolin-3-yl)-1H-1,2,4-triazole-3,5-diamine], 1000 to 10000 nM; under `CN1CCN(c2ccc(Nc3nc(N)n(-c4ncnc5cc(O)c(O)cc45)n3)cc2F)CC1` [Compound 116, 4-(5-amino-3-(3-fluoro-4-(4-methylpiperazin-1-yl)phenylamino)-1H-1,2,4-triazol-1-yl)quinaoline-6,7-diol], 1000 to 10000 nM. Same read-out and setting: the figure for `COc1cc2c(-n3nc(Nc4ccc(N5CCN(C)CC5)c(F)c4)nc3N)ncnc2cc1O` [Compound 117, 4-(5-amino-3-(3-fluoro-4-(4-methylpiperazin-1-yl)phenylamino)-1H-1,2,4-triazol-1-yl)-6-methoxyquinazolin-7-ol] is under 1000 nM; for `COc1cc2ncnc(-n3nc(Nc4ccc(N5CCN(C6C7CCCC6CCC7)CC5)cc4)nc3N)c2cc1OC` (stereo not drawn) [Compound 118, N^3-(4-(4-(bicyclo[3.3.1]nonan-9-yl)piperazin-1-yl)phenyl)-1-(6,7-dimethoxyquinazolin-4-yl)-1H-1,2,4-triazole-3,5-diamine] it is 1000 to 10000 nM. The same measure, in the same setting: under `CCN1CCN(c2cc(Nc3nc(N)n(-c4ncnc5cc(OC)c(OC)cc45)n3)ccc2Cl)CC1` [Compound 119, N-(4-chloro-3-(4-ethylpiperazin-1-yl)phenyl)-1-(6,7-dimethoxyquinazolin-4-yl)-1H-1,2,4-triazole-3,5-diamine] stands 1000 to 10000 nM.

Turning to `COc1cc2ncnc(-n3nc(Nc4ccc(Cl)c(N5CCN(C(C)=O)CC5)c4)nc3N)c2cc1OC` [Compound 120, 1-(4-(5-(5-amino-1-(6,7-dimethoxyquinazolin-4-yl)-1H-1,2,4-triazol-3-ylamino)-2-chlorophenyl)piperazin-1-yl)ethanone], the IC50 is over 20000 nM. `COc1cc2ncnc(-n3nc(Nc4ccc(N5CCN(C)CC5)c(C(N)=O)c4)nc3N)c2cc1OC` [Compound 121, 5-(5-amino-1-(6,7-dimethoxyquinazolin-4-yl)-1H-1,2,4-triazol-3-ylamino)-2-(4-methylpiperazin-1-yl)benzamide]: the IC50 fell in the range of 1000 to 10000 nM.

For the compound `COc1cc2ncnc(-n3nc(Nc4ccc(N5CCN(C6CCCCC6)CC5)c(F)c4)nc3N)c2cc1OC` [Compound 122, N^3-(4-(4-cyclohexylpiperazin-1-yl)-3-fluorophenyl)-1-(6,7-dimethoxyquinazolin-4-yl)-1H-1,2,4-triazole-3,5-diamine], the IC50 was under 1000 nM.

In the case of `COc1cc2ncnc(-n3nc(Nc4ccc(N5CCN(C6CC7CCC6C7)CC5)c(F)c4)nc3N)c2cc1OC` (stereo not drawn) [Compound 123, N^3-(4-(4-(bicyclo[2.2.1]heptan-2-yl)piperazin-1-yl)-3-fluorophenyl)-1-(6,7-dimethoxyquinazolin-4-yl)-1H-1,2,4-triazole-3,5-diamine], the IC50 is over 20000 nM. Same read-out and setting: the figure for `COc1cc2ncnc(-n3nc(Nc4ccc(N5CCN(C6CC7CCCC76)CC5)cc4)nc3N)c2cc1OC` (stereo not drawn) [Compound 124, N^3-(4-(4-(bicyclo[3.2.0]heptan-6-yl)piperazin-1-yl)phenyl)-1-(6,7-dimethoxyquinazolin-4-yl)-1H-1,2,4-triazole-3,5-diamine] is over 20000 nM.

`COc1cc2ccnc(-n3nc(Nc4ccc(N5CCN(C6CC7CCC6C7)CC5)cc4)nc3N)c2cc1OC` (stereo not drawn) [Compound 125, N^3-(4-(4-(bicyclo[2.2.1]heptan-2-yl)piperazin-1-yl)phenyl)-1-(6,7-dimethoxyisoquinolin-1-yl)-1H-1,2,4-triazole-3,5-diamine]: the IC50 was under 1000 nM. On the same count and under the same terms, the figure for `COc1cc2ccnc(-n3nc(Nc4ccc(N5CCN(C6CCCCCC6)CC5)cc4)nc3N)c2cc1OC` [Compound 126, N^3-(4-(4-cycloheptylpiperazin-1-yl)phenyl)-1-(6,7-dimethoxyisoquinolin-1-yl)-1H-1,2,4-triazole-3,5-diamine] is under 1000 nM. Same read-out and setting: the figure for `Nc1nc(Nc2ccc(N3CCN(C4CC5CCC4C5)CC3)cc2)nn1-c1ncnc2sccc12` (stereo not drawn) [Compound 127, N^3-(4-(4-(bicyclo[2.2.1]heptan-2-yl)piperazin-1-yl)phenyl)-1-(thieno[2,3-d]pyrimidin-4-yl)-1H-1,2,4-triazole-3,5-diamine] is under 1000 nM.

`Nc1nc(Nc2ccc(N3CCN(C4CC5CCC4C5)CC3)cc2)nn1-c1ncnc2ccsc12` (stereo not drawn) [Compound 128, N^3-(4-(4-(bicyclo[2.2.1]heptan-2-yl)piperazin-1-yl)phenyl)-1-(thieno[3,2-d]pyrimidin-4-yl)-1H-1,2,4-triazole-3,5-diamine] registered a concentration for half-maximal inhibition (IC50) of under 1000 nM. The same measure, in the same setting: under `Nc1nc(Nc2ccc(N3CCN(C4CC5CCC4C5)CC3)cc2)nn1-c1ncnc2cc(-c3ccccc3)sc12` (stereo not drawn) [Compound 129, N^3-(4-(4-(bicyclo[2.2.1]heptan-2-yl)piperazin-1-yl)phenyl)-1-(6-phenylthieno[3,2-d]pyrimidin-4-yl)-1H-1,2,4-triazole-3,5-diamine] stands 1000 to 10000 nM; under `Nc1nc(Nc2ccc(N3CCN(C4CC5CCC4C5)CC3)cc2)nn1-c1nccc2occc12` (stereo not drawn) [Compound 131, N^3-(4-(4-(bicyclo[2.2.1]heptan-2-yl)piperazin-1-yl)phenyl)-1-(furo[3,2-c]pyridin-4-yl)-1H-1,2,4-triazole-3,5-diamine], under 1000 nM.

For the compound `Nc1nc(Nc2ccc(N3CCN(C4CC5CCC4C5)CC3)cc2)nn1-c1ncnc2sc3c(c12)CCC3` (stereo not drawn) [Compound 132, N^3-(4-(4-(bicyclo[2.2.1]heptan-2-yl)piperazin-1-yl)phenyl)-1-(6,7-dihydro-5H-cyclopenta[4,5]thieno[2,3-d]pyrimidin-4-yl)-1H-1,2,4-triazole-3,5-diamine], the IC50 lay within 1000 to 10000 nM. Compound `Cc1csc2c(-n3nc(Nc4ccc(C5CCN(C6CC7CCC6C7)CC5)cc4)nc3N)nc(Cl)nc12` (stereo not drawn) [Compound 134, N^3-(4-(1-(bicyclo[2.2.1]heptan-2-yl)piperidin-4-yl)phenyl)-1-(2-chloro-7-methylthieno[3,2-d]pyrimidin-4-yl)-1H-1,2,4-triazole-3,5-diamine] gave an IC50 of under 1000 nM. On the same count and under the same terms, the figure for `Nc1nc(Nc2ccc(N3CCN(C4CC5CCC4C5)CC3)cc2)nn1-c1nc(C(F)(F)F)nc2ccccc12` (stereo not drawn) [Compound 136, N^3-(4-(4-(bicyclo[2.2.1]heptan-2-yl)piperazin-1-yl)phenyl)-1-(2-(trifluoromethyl)quinazolin-4-yl)-1H-1,2,4-triazole-3,5-diamine] is 1000 to 10000 nM.
